Experiments:
PLK1 = biological target: T1, PLK1 (Homo sapiens, UniProt P53350); test: PLK1 enzyme assay (Z'-LYTE, Invitrogen); assay type: biochemical; settings: ATP at or close to Km, 60 minute kinase reaction; read-out: Inhibitor Activity vs PLK1
T1 construct: purchased Invitrogen (Paisley, UK), assay service
Description: The ability of compounds to inhibit PLK-1 kinase activity was measured in an assay performed by Invitrogen (Paisley, UK). The Z′-LYTE™ biochemical assay employs a fluorescence-based, coupled-enzyme format and is based on the differential sensitivity of phosphorylated and non-phosphorylated peptides to proteolytic cleavage. The peptide substrate is labelled with two fluorophores—one at each end—that make up a FRET pair. In the primary reaction, the kinase transfers the gamma-phosphate of ATP to a single serine or threonine residue in a synthetic FRET-peptide. In the secondary reaction, a site-specific protease recognizes and cleaves non-phosphorylated FRET-peptides. Phosphorylation of FRET-peptides suppresses cleavage by the Development Reagent. Cleavage disrupts FRET between the donor (i.e., coumarin) and acceptor (i.e., fluorescein) fluorophores on the FRET-peptide, whereas uncleaved, phosphorylated FRET-peptides maintain FRET. A […] method, which calculates the ratio (the Emission Ratio) of donor emission to acceptor emission after excitation of the donor fluorophore at 400 nm, is used to quantitate reaction progress.
The final 10 μl Kinase Reaction consists of 2.8-25.3 ng PLK1, 2 μM Ser/Thr 16 Peptide substrate and ATP in 50 mM HEPES pH 7.5, 0.01% BRIJ-35, 10 mM MgCl2, 1 mM EGTA. The assay is performed at an ATP concentration at, or close to, the Km. After the 60 minute Kinase Reaction incubation at room temperature, 5 μl of a 1:8 dilution of Development Reagent is added. The assay plate is incubated for a further 60 minutes at room temperature and read on a fluorescence plate reader.
Duplicate data points are generated from a ⅓ log dilution series of a stock solution of test compound in DMSO. Nine dilutions steps are made from a top concentration of 10 μM, and a “no compound” blank is included. Data is collected and analysed using XLfit software from IDBS. The dose response curve is curve fitted to model number 205 (sigmoidal dose-response model). From the curve generated, the concentration giving 50% inhibition is determined and reported.

HCT 116 cell line = test: Cell inhibition assay (WST-1 proliferation); assay type: cell-based; settings: Homo sapiens, 120 hrs incubation, read-out: Inhibitor Activity vs HCT 116 cell line
Description: Cells were seeded in 96W tissue culture plates (1 well=30 mm^2) at a density of 500 cells per well in 50 μl of the appropriate culture medium (see below). 24 hrs later 50 μl of the compound prepared in the same medium was added as 4 fold dilutions to give final concentrations in the range 0.15 nM-2500 nM (n=6 for each concentration). The plates were then incubated at 37° C., 5% CO2 for 120 hrs. Cell proliferation was assessed using WST-1 (a metabolic indicator dye, Roche Cat no. 1 644 807) according to the manufacturers instructions. The results were calculated as percentage of vehicle response and IC50 values represent the concentration of compound that inhibited the vehicle response by 50%.
HCT-116 Culture Medium—Dulbeccos MEM (Sigma D6546) plus 10% heat inactivated fetal calf serum (Hyclone SH30071 Thermo Fischer Scientific) containing 2 mM Glutamine (Sigma cat no G-7513) and 50 U/ml Penicillin and Streptomycin Sulphate (Sigma Cat no P-0781).

T1 sequence (P53350 whole entry): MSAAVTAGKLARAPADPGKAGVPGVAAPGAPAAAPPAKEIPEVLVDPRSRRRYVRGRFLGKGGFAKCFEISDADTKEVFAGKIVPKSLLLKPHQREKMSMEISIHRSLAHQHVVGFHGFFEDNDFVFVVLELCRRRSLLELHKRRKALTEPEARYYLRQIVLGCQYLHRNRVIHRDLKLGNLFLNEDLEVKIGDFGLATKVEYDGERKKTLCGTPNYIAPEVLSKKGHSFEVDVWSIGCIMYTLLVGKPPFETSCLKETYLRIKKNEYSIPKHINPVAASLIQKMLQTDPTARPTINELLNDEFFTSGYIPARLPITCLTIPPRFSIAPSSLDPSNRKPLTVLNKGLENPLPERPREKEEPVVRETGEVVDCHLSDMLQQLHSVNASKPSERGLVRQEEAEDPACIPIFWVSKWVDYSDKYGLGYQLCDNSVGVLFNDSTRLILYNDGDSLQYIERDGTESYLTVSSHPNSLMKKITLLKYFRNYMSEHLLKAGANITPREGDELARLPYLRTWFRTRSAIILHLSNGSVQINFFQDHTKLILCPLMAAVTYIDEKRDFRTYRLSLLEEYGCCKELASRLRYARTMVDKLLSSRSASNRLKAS

| Structure (SMILES) | IC50 (PLK1) [µM] | IC50 (HCT 116 cell line) [µM] |
| --- | --- | --- |
| CC[C@@H]1C(=O)N(C)c2cnc(Nc3ccc(C(=O)N[C@H]4CC[C@@H](CCC(=O)N[C@@H](CC(C)C)C(=O)OC5CCCC5)CC4)cc3OC)nc2N1C1CCCC1 [Example 17, Cyclopentyl N-(3-{cis-4-[(4-{[(7R)-8-cyclopentyl-7-ethyl-5-methyl-6-oxo-5,6,7,8-tetrahydropteridin-2-yl]amino}-3-methoxybenzoyl)amino]cyclohexyl}propanoyl)-L-leucinate] | < 0.1 | < 0.1 |
| CC[C@@H]1C(=O)N(C)c2cnc(Nc3ccc(C(=O)NC4CCN(CCCC(=O)N[C@@H](C(=O)OC5CCCC5)C5CCCCC5)CC4)cc3OC)nc2N1C1CCCC1 [Example 5, Cyclopentyl (2R)-cyclohexyl [(4-{4-[(4-{[(7R)-8-cyclopentyl-7-ethyl-5-methyl-6-oxo-5,6,7,8-tetrahydropteridin-2-yl]amino}-3-methoxybenzoyl)amino]piperidin-1-yl}butanoyl)amino]acetate] | 0.1 to 0.5 | > 0.5 |
| CC[C@@H]1C(=O)N(C)c2cnc(Nc3ccc(C(=O)NC4CCN(CC(=O)N[C@@H](CC(C)C)C(=O)OC5CCCC5)CC4)cc3OC)nc2N1C1CCCC1 [Example 7, Cyclopentyl N-({4-[(4-{[(7R)-8-cyclopentyl-7-ethyl-5-methyl-6-oxo-5,6,7,8-tetrahydropteridin-2-yl]amino}-3-methoxybenzoyl)amino]piperidin-1-yl}acetyl)-L-leucinate] | 0.1 to 0.5 | < 0.1 |
| CC[C@@H]1C(=O)N(C)c2cnc(Nc3ccc(C(=O)NC4CCN(CCCC(=O)N[C@@H](C(=O)OC5CCCC5)c5ccccc5)CC4)cc3OC)nc2N1C1CCCC1 [Example 4, Cyclopentyl (2R)-[(4-{4-[(4-{[(7R)-8-cyclopentyl-7-ethyl-5-methyl-6-oxo-5,6,7,8-tetrahydropteridin-2-yl]amino}-3-methoxybenzoyl)amino]piperidin-1-yl}butanoyl)amino](phenyl)acetate] | < 0.1 | < 0.1 |
| CC[C@@H]1C(=O)N(C)c2cnc(Nc3ccc(C(=O)NC4CCN(CCCC(=O)N[C@@H](CC(C)C)C(=O)O)CC4)cc3OC)nc2N1C1CCCC1 [Example 18, N-(4-{4-[(4-{[(7R)-8-Cyclopentyl-7-ethyl-5-methyl-6-oxo-5,6,7,8-tetrahydropteridin-2-yl]amino}-3-methoxybenzoyl)amino]piperidin-1-yl}butanoyl)-L-leucine] | < 0.1 |  |
| CC[C@@H]1C(=O)N(C)c2cnc(Nc3ccc(C(=O)NC4CCN(CCCC(=O)N[C@H](CC(C)C)C(=O)O)CC4)cc3OC)nc2N1C1CCCC1 [Example 19, N-(4-{4-[(4-{[(7R)-8-Cyclopentyl-7-ethyl-5-methyl-6-oxo-5,6,7,8-tetrahydropteridin-2-yl]amino}-3-methoxybenzoyl)amino]Piperidin-1-yl}butanoyl)-D-leucine] | < 0.1 |  |
| CC[C@@H]1C(=O)N(C)c2cnc(Nc3ccc(C(=O)NC4CCN(CCCC(=O)N[C@H](C(=O)O)c5ccccc5)CC4)cc3OC)nc2N1C1CCCC1 [Example 20, (2S)-[(4-{4-[(4-{[(7R)-8-Cyclopentyl-7-ethyl-5-methyl-6-oxo-5,6,7,8-tetrahydropteridin-2-yl]amino}-3-methoxybenzoyl)amino]piperidin-1-yl}butanoyl)amino](phenyl)acetic acid] | < 0.1 |  |
| CC[C@@H]1C(=O)N(C)c2cnc(Nc3ccc(C(=O)NC4CCN(CCCC(=O)N[C@@H](C(=O)O)c5ccccc5)CC4)cc3OC)nc2N1C1CCCC1 [Example 21, (2R)-[(4-{4-[(4-{[(7R)-8-Cyclopentyl-7-ethyl-5-methyl-6-oxo-5,6,7,8-tetrahydropteridin-2-yl]amino}-3-methoxybenzoyl)amino]piperidin-1-yl}butanoyl)amino](phenyl)acetic acid] | < 0.1 |  |

Other lines, results leading:

| IC50 (PLK1) [µM] | IC50 (HCT 116 cell line) [µM] | Structure (SMILES) |
| --- | --- | --- |
| < 0.1 |  | CC[C@@H]1C(=O)N(C)c2cnc(Nc3ccc(C(=O)NCCCC(=O)N[C@@H](CC(C)C)C(=O)O)cc3OC)nc2N1C1CCCC1 [Example 27, N-{4-[(4-{[(7R)-8-Cyclopentyl-7-ethyl-5-methyl-6-oxo-5,6,7,8-tetrahydropteridin-2-yl]amino}-3-methoxybenzoyl)amino]butanoyl}-L-leucine] |
| < 0.1 |  | CC[C@@H]1C(=O)N(C)c2cnc(Nc3ccc(C(=O)NC4CCN(CCCCC(=O)N[C@@H](CC(C)C)C(=O)O)CC4)cc3OC)nc2N1C1CCCC1 [Example 23, N-(5-[4-[(4-{[(7R)-8-Cyclopentyl-7-ethyl-5-methyl-6-oxo-5,6,7,8-tetrahydropteridin-2-yl]amino}-3-methoxybenzoyl)amino]piperidin-1-yl]pentanoyl)-L-leucine] |
| < 0.1 |  | CC[C@@H]1C(=O)N(C)c2cnc(Nc3ccc(C(=O)N[C@H]4CC[C@@H](CCC(=O)N[C@@H](CC(C)C)C(=O)O)CC4)cc3OC)nc2N1C1CCCC1 [Example 31, N-(3-{cis-4-[(4-{[(7R)-8-Cyclopentyl-7-ethyl-5-methyl-6-oxo-5,6,7,8-tetrahydropteridin-2-yl]amino}-3-methoxybenzoyl)amino]cyclohexyl}propanoyl)-L-leucine] |
| < 0.1 |  | CC[C@@H]1C(=O)N(C)c2cnc(Nc3ccc(CCCCCC(=O)N[C@@H](CC(C)C)C(=O)O)cc3F)nc2N1C1CCCC1 [Example 29, N-[6-(4-{[(7R)-8-Cyclopentyl-7-ethyl-5-methyl-6-oxo-5,6,7,8-tetrahydropteridin-2-yl]amino}-3-fluorophenyl)hexanoyl]-L-leucine] |
| < 0.1 |  | CC[C@@H]1C(=O)N(C)c2cnc(Nc3ccc(C(=O)NC4CCN(CC(=O)N[C@@H](CC(C)C)C(=O)O)CC4)cc3OC)nc2N1C1CCCC1 [Example 24, N-({4-[(4-{[(7R)-8-Cyclopentyl-7-ethyl-5-methyl-6-oxo-5,6,7,8-tetrahydropteridin-2-yl]amino}-3-methoxybenzoyl)amino]piperidin-1-yl}acetyl)-L-leucine] |
| < 0.1 |  | CC[C@@H]1C(=O)N(C)c2cnc(Nc3c(F)cc(/C=C/CCCC(=O)N[C@@H](CC(C)C)C(=O)O)cc3F)nc2N1C1CCCC1 [Example 30, N-[(5E)-6-(4-{[(7R)-8-Cyclopentyl-7-ethyl-5-methyl-6-oxo-5,6,7,8-tetrahydropteridin-2-yl]amino}-3,5-difluorophenyl)hex-5-enoyl]-L-leucine] |
| < 0.1 |  | CC[C@@H]1C(=O)N(C)c2cnc(Nc3ccc(C(=O)NC4CCN(CCNC(=O)N[C@H](C(=O)O)C5CCCCC5)CC4)cc3OC)nc2N1C1CCCC1 [Example 25, (2S)-Cyclohexyl{[(2-{4-[(4-{[(7R)-8-cyclopentyl-7-ethyl-5-methyl-6-oxo-5,6,7,8-tetrahydropteridin-2-yl]amino}-3-methoxybenzoyl)amino]piperidin-1-yl}ethyl)carbamoyl]amino}acetic acid] |
| < 0.1 |  | CC[C@@H]1C(=O)N(C)c2cnc(Nc3ccc(C(=O)Nc4ccc(CCCC(=O)N[C@@H](CC(C)C)C(=O)O)cc4)cc3OC)nc2N1C1CCCC1 [Example 26, N-(4-{4-[(4-{[(7R)-8-Cyclopentyl-7-ethyl-5-methyl-6-oxo-5,6,7,8-tetrahydropteridin-2-yl]amino}-3-methoxybenzoyl)amino]phenyl}butanoyl)-L-leucine] |
| < 0.1 |  | CC[C@@H]1C(=O)N(C)c2cnc(Nc3ccc(C(=O)NC4CCN(CCCC(=O)N[C@@H](C(=O)O)C5CCCCC5)CC4)cc3OC)nc2N1C1CCCC1 [Example 22, (2R)-Cyclohexyl[(4-{4-[(4-{[(7R)-8-cyclopentyl-7-ethyl-5-methyl-6-oxo-5,6,78-tetrahydropteridin-2-yl]amino}-3-methoxybenzoyl)amino]piperidin-1-yl}butanoyl)amino]acetic acid] |
| < 0.1 |  | CC[C@@H]1C(=O)N(C)c2cnc(Nc3ccc(/C=C/CCCC(=O)N[C@@H](CC(C)C)C(=O)O)cc3F)nc2N1C1CCCC1 [Example 28, N-[(5E)-6-(4-{[(7R)-8-Cyclopentyl-7-ethyl-5-methyl-6-oxo-5,6,7,8-tetrahydropteridin-2-yl]amino}-3-fluorophenyl)hex-5-enoyl]-L-leucine] |
